The record followed here is patent US8871741B2, “Inhibition of TNF-α induced activation of NFKB by pentosan polysulfate” (Icahn School of Medicine at Mount Sinai, priority 2010, dated 2014).

One data set has as its system MMP-9. Briefly: Zymography of U937 cell supernatants, MMP-9. It is filed as cell-based, human. The settings on record: U937 cells stimulated with 10 ng/ml TNF-α, 100 μg/ml PPS; P<0.01. The procedure: (§1) Human pro-monocytic U937 cells were obtained from American Type Culture Collection (Manassas, Va.) and grown in RPMI medium supplemented with 10% FBS. U937 cells were plated in six-well plates at a density of 5×10^6 cells/ml. The cells were then stimulated with 10 ng/ml TNF-α, in the presence or absence of either increasing concentrations of PPS (10-100 μg/ml) or heparin (100 μg/ml), and incubated at 37° C. for 3 hours. Following stimulation, cells were placed in 0.1% BSA-serum-free medium for 16-18 hours. The media was then collected, centrifuged, and supernatants were stored at −80° C. for the assessment of MMP activity. The cell number was determined by direct cell counting.
MMP activity in aortic extracts and conditioned media from monocytes was assessed, as previously described (Jacot T A, et al., Lab Invest. 1996; 75:791-79). Briefly, aortic segments were homogenized and extracted in RIPA buffer (25 mM Tris, pH 7.4, 150 mM KCl, 5 mM EDTA, 1% Nonidet P-40, 0.5% sodium deoxycholate, and 0.1% SDS). Insoluble material was precipitated by centrifugation, and soluble extracts were collected and stored at −20° C. for further analysis. For in vitro experiments, cell supernatants were centrifuged to remove cellular debris, and diluted appropriately to normalize for cell number. […]

For data set [1], the system named is MCP-1, RANTES, CXCL1, MIP-2, ICAM-1, and iNOS mRNA. Briefly: TNFα induced pro-inflammatory gene expression in proximal tubular cell line, real-time PCR. It counts as cell-based, mouse. The note with it: PPS 200 μg/ml for 1 hour before TNFα 10 ng/ml, RNA 4 hours later. The protocol:
A proximal tubular cell line obtained from mice transgenic for SV40 T antigen was grown in DMEM containing 10% FBS. For the measurement of TNFα-stimulated gene expression, 1×10^5 proximal tubular cells were transferred to each well of a 6-well-plate. After placing the cells in 0.1% FBS medium for 24 hours, 10 ng/ml of TNFα was added to test wells. Total RNA was isolated from all wells 4 hours later. MCP-1, RANTES, CXCL1, MIP-2, ICAM-1, and iNOS mRNA levels were determined by real-time PCR as described above and corrected by β-actin mRNA levels. TNFα stimulated MCP-1 and RANTES production and release into the medium was measured in TNFα (10 ng/ml) treated and control cells at 24 hours. The amount of MCP-1 or RANTES in the medium was measured by ELISA (Invitrogen Corporation (Carlsband, Calif.).
To determine the effect of PPS on TNFα induced upregulation of proinflammatory genes, proximal tubular cells were pre-treated with PPS (200 μg/ml) for 1 hour before the addition of TNFα (10 ng/ml). MCP-1, RANTES, CXCL1, MIP-2, ICAM-1, and iNOS mRNA levels were determined 4 hours later by real-time PCR. MCP-1 and RANTES production was also measured.
Background: Quantitative PCR measures a nucleic acid by following its amplification.

Data set [2] has as its system phosphorylated NF-κB (p65 (Ser276)). Briefly: Immunostaining for nuclear phosphorylated NF-κB in kidney. It counts as in vivo, mouse. The note with it: PPS treated 22 month-old diabetic kidney. From the text:
(§2) Paraffin sections from non-diabetic and diabetic mice were deparaffinized prior to staining for apoptosis, makers for inflammation such as macrophages (F4/80, 1:100, Caltag Laboratories, Burlingame, Calif.) and phosphorylated NF-κB (p65 (Ser276), 1:25, Cell Signaling Technology, Inc, Danvers, Mass.), markers for oxidative stress, i.e., nitrotyrosine (1:140, Upstate Biotechnology Inc, Billerica, Mass.) and malondialdehyde (MDA, 1:100, Alpha Diagnostic International Inc, San Antonio, Tex.), and markers for endoplasmic reticulum (ER) stress, i.e., phosphorylated pancreatic ER kinase (PERK, 1:5, Santa Cruz Biotechnology, Santa Cruz, Calif.), and phosphorylated eukaryotic initiation factor 2α (eIF2α, 1:50, Stressgen Bioreagents Corp, Norwalk, Conn.).
(§3) Stained sections were examined under light microscopy (Zeiss Axioskop, Germany). The cortical area of the kidney was digitized under ×10 objective low power with a Sony 3CCD color video camera and a meta imaging series software (Molecular Devices, Downingtown, Pa.). The area of positively stained tubules and glomeruli was measured and expressed as the percentage of total cortical area. The intensity of the staining was also assessed using the color differentiation program.

The test system of the next data set is macrophages (F4/80). Briefly: F4/80 immunostaining for macrophage infiltration in kidney. It is filed as in vivo, mouse. The settings on record: PPS treated 22 month-old diabetic mice.
From the text: as §2, §3

Another data set relates to monocytic cells. Briefly: Cell viability by trypan blue staining. It counts as cell-based, human.
The subject of data set [3] is MCP-1, RANTES, CXCL-1 mRNA. Briefly: Real-time PCR of chemokine mRNA in renal cortex. The settings on record: PPS treated 22 month-old diabetic mice; P<0.01 vs. DN. It counts as in vivo, mouse. The protocol:
Total RNA was isolated from renal cortex using a PureYield RNA Midiprep kit (Promega, Madison, Wis.). The preparation was free of DNA contamination and 500 ng of total RNA from each sample was reverse-transcribed as previously described (Zheng F, Striker G E, Esposito C, Lupia E, Striker L J. Kidney Int 1998, 54:1999-2007; Zheng F, et al., Am Pathol 2003, 162:1339-1348). The levels of MCP-1 (monocyte chemoattractant protein-1), CXCL1 (c-x-c motif ligand 1), MIP2 (macrophage inflammatory protein 2), RANTES (regulated on activation, normal T cell expressed and secreted), ICAM-1 ([…] adhesion molecule 1), GRP78 (glucose regulatory protein 78), CHOP, and IL-6 (interleukin 6) mRNA were determined by real-time polymerase chain reaction (PCR). The primers used for the measurement were:
mRNA levels were corrected by the levels of β-actin or GAPDH mRNA. The expression of TNFα mRNA in kidney was determined by both a real time and a regular PCR using the primer of forward, 5′-[…]-3′ (SEQ ID NO: 17), reverse, 5′-[…]-3′ (SEQ ID NO: 18). GAPDH and β-actin mRNA levels were measured in the same sample.

For data set [4], the system named is MMP-2. Briefly: Zymography of aortic extracts. The note with it: PPS-treated WHHL rabbits, 75 days HC-diet. It is filed as in vivo, rabbit. The procedure: (§4) MMP activity in aortic extracts and conditioned media from monocytes was assessed, as previously described (Jacot T A, et al., Lab Invest. 1996; 75:791-79). Briefly, aortic segments were homogenized and extracted in RIPA buffer (25 mM Tris, pH 7.4, 150 mM KCl, 5 mM EDTA, 1% Nonidet P-40, 0.5% sodium deoxycholate, and 0.1% SDS). Insoluble material was precipitated by centrifugation, and soluble extracts were collected and stored at −20° C. for further analysis. For in vitro experiments, cell supernatants were centrifuged to remove cellular debris, and diluted appropriately to normalize for cell number. Aortic extracts and conditioned media were then mixed with sample buffer (1% SDS, 0.08 M Tris pH 6.8, 4% glycerol, and 0.006% bromophenol blue), and loaded onto a 10% gelatin polyacrylamide gel, and processed as described (Jacot T A, et al., Lab Invest. 1996; 75:791-79). For reverse zymography, samples were loaded onto a 15% gelatin polyacrylamide gel containing 0.5% porcine gelatin and 6 μg recombinant gelatinase A, and processed as described (Elliot S J, et al., J Am Soc Nephrol. 1999; 10: 62-68).

Data set [5] relates to MMP-2. Briefly: Zymography of U937 cell supernatants, MMP-2. It counts as cell-based, human. The protocol: as §1, §4
Setting [6] is: U937 cells, dose-response experiments.

As for pentosan polysulfate [PPS], the “MMP-9 activity, reduction by PPS treatment” value in the data set with MMP-9 is 51.70%±10.77%. In addition, the “TNFα stimulation of MCP-1, RANTES, CXCL-1, MIP-2, ICAM-1 and iNOS mRNA expression” value in data set [1] was “largely prevented”. In addition, in data set [2], the “number of nuclei stained positively for phosphorylated NF-κB (p65 (Ser276))” value is “noticeably reduced”. Also, the “macrophage infiltration in kidney (F4/80 immunostaining)” value in the data set with macrophages (F4/80) is reported as “largely prevented”. In the data set with monocytic cells, the “effect on cell viability” value was “no effect”. In data set [3], the “mRNA levels of MCP-1, RANTES, and CXCL-1 in renal cortices” value is “levels similar to 22 month-old non-diabetic”. Also, the “MMP-2 activity in aortic extracts” value in the data set with MMP-2 [4] was “significantly increased”. The “MMP-2 activity, reduction by PPS treatment” value in the data set with MMP-2 [5] (U937 cells stimulated with 10 ng/ml TNF-α, 100 μg/ml PPS, P<0.05) is on record as 37.73%±12.17%. Besides, in the data set with MMP-2 [5] (setting [6]), the “concentration at which the PPS effect on MMP activity was evident” value was determined as 25 µg/mL and the “concentration at which the PPS effect on MMP activity was maximal” value was in the range of 75 to 100 µg/mL. Further, in the data set on MMP-2 [5] (unstimulated U937 cells, 100 μg/ml PPS, figure data as percent of control, P<0.01), the “MMP-2 activity, decrease by PPS treatment” value is given as 45.40%±9.68%.
